Data as given in patent publication US7264921B2, “No synthase assay particles and method” (GE Healthcare UK Limited, priority 2001, dated 2007).
Where a name gives a salt, the structure may show the parent alone.

Experiments:
iNOS [1] = biological target: T1, iNOS (Mus musculus, UniProt P29477); assay: iNOS SPA enzyme assay, effect of solvents; assay type: biochemical, murine; design: purchased Cayman Chemical Company 60864; conditions: for Time (mins) cpm, 0: 0 min; for Time (mins) cpm, 5: 5 min; for Time (mins) cpm, 10: 10 min; for Time (mins) cpm, 20: 20 min; for % change in ratio: versus water
Experimental: The effect of using different solvents to dissolve test inhibitor compounds was tested, using the assay conditions as described in Example 4 above. […] Appropriate ‘experimental controls’ should therefore be used in all experiments.

iNOS [2] = biological target: T1, iNOS; assay: iNOS enzyme assay, competition experiment I (LEADseeker beads, 14C arginine); assay type: biochemical, murine; design: purchased Cayman Chemical Company 60864; conditions: from dose response curve FIG. 8; 1 hour room temperature; read-out: IC50 (50% inhibition of the enzyme)
Experimental: The preferential capture of arginine compared to citrulline can be utilised in a signal decrease assay. The assay is performed in a 3074 Costar 384 well plate Enzyme (iNOS murine macrophage, recombinant. Cayman catalogue no. 60864, 112 units/ml) is diluted 10 times in assay buffer (1.2 mM NADPH, 3.6 mM DTT, 4.8 uM FAD, 4.8 uM FMN, 4.8 uM biopterin in 50 mM TRIS pH 7.5. Diluted enzyme (10 μl) is incubated with 1.5 μl inhibitor/agonist dissolved in 100% DMSO along with 10 μl ^14C arginine tracer (APBiotech, CFB63, 300 mCi/mMol stock solution diluted in assay buffer to 100,000-150,000 cpm in 10 μl) for 1 hour at room temperature, protected from light. 10 μl LEADseeker beads suspended in a “stop” solution (360 μM aminoguanidine, 20 mM EDTA, pH 8) to 100 mg/ml (i.e 10 μl=1 mg/well) are added and the mixture incubated at room temperature for at least 2 hours. Control reactions were carried out by replacing the inhibitor with 1.5 μl water. The results are read by counting in LEADseeker™ (binning at 2×2, Q coincidence and imaged for 5 mins).
The baseline was determined using 1.5 μl 1 mM aminoguanidine (final concentration 70 μM) and maximum response using 1.5 μl 30 mM aminoguanidine (final concentration).

iNOS [3] = biological target: T1, iNOS; assay: biochemical
Experimental: Reaction conditions and data measurement were as described in Example 3 above, using 10 μl of iNOS (Cayman Chemical Company, Catalogue Number 60864) enzyme equivalent to 0.038 units/well.
The assay conditions were as described in Example 4 above employing a range of inhibitor concentrations.

% change in ratio (iNOS [1]; 1% solvent) [%]	% change in ratio (iNOS [1]; 5% solvent) [%]	IC50 (iNOS [2]) [µM]	IC50 (iNOS [3]) [µM]	Structure (SMILES)	Ratio Time 0/20 mins (iNOS [1]; 1% solvent)	Time (mins) cpm, 0 (iNOS [1]; 1% solvent) [cpm]	Time (mins) cpm, 5 (iNOS [1]; 1% solvent) [cpm]	Time (mins) cpm, 10 (iNOS [1]; 1% solvent) [cpm]	Time (mins) cpm, 20 (iNOS [1]; 1% solvent) [cpm]	Ratio Time 0/20 mins (iNOS [1]; 5% solvent)	Time (mins) cpm, 0 (iNOS [1]; 5% solvent) [cpm]	Time (mins) cpm, 5 (iNOS [1]; 5% solvent) [cpm]	Time (mins) cpm, 10 (iNOS [1]; 5% solvent) [cpm]	Time (mins) cpm, 20 (iNOS [1]; 5% solvent) [cpm]	Ratio Time 0/20 mins (iNOS [1]; 10% solvent)	Time (mins) cpm, 0 (iNOS [1]; 10% solvent) [cpm]	Time (mins) cpm, 5 (iNOS [1]; 10% solvent) [cpm]	Time (mins) cpm, 10 (iNOS [1]; 10% solvent) [cpm]	Time (mins) cpm, 20 (iNOS [1]; 10% solvent) [cpm]	% change in ratio (iNOS [1]; 10% solvent) [%]
10	28	–	–	C[S+](C)[O-] [DMSO]	6.39	10324	7128	4330	1615	5.12	8530	4166	4453	1665	3.10	6630	3884	3666	2138	56
–	–	~500	–	N=C(N)NN [aminoguanidine]	–	–	–	–	–	–	–	–	–	–	–	–	–	–	–	–
8	41	–	–	CCO [ethanol]	6.57	13409	9004	5580	2040	4.19	13248	7465	6596	3161	3.23	12008	6316	5987	3715	54
–	–	–	–	CO [methanol]	7.56	14914	8639	4989	1973	7.13	15317	7939	5466	2147	6.32	12488	6631	4698	1975	10
–	–	–	0.032	CCSC(=N)N [SEITU, 2-ethyl-2-thiopseudourea hydrobromide]	–	–	–	–	–	–	–	–	–	–	–	–	–	–	–	–

Structure (SMILES)	% change in ratio (iNOS [1]; 1% solvent) [%]	% change in ratio (iNOS [1]; 5% solvent) [%]	IC50 (iNOS [2]) [µM]	IC50 (iNOS [3]) [µM]	Ratio Time 0/20 mins (iNOS [1]; 1% solvent)	Time (mins) cpm, 0 (iNOS [1]; 1% solvent) [cpm]	Time (mins) cpm, 5 (iNOS [1]; 1% solvent) [cpm]	Time (mins) cpm, 10 (iNOS [1]; 1% solvent) [cpm]	Time (mins) cpm, 20 (iNOS [1]; 1% solvent) [cpm]	Ratio Time 0/20 mins (iNOS [1]; 5% solvent)	Time (mins) cpm, 0 (iNOS [1]; 5% solvent) [cpm]	Time (mins) cpm, 5 (iNOS [1]; 5% solvent) [cpm]	Time (mins) cpm, 10 (iNOS [1]; 5% solvent) [cpm]	Time (mins) cpm, 20 (iNOS [1]; 5% solvent) [cpm]	Ratio Time 0/20 mins (iNOS [1]; 10% solvent)	Time (mins) cpm, 0 (iNOS [1]; 10% solvent) [cpm]	Time (mins) cpm, 5 (iNOS [1]; 10% solvent) [cpm]	Time (mins) cpm, 10 (iNOS [1]; 10% solvent) [cpm]	Time (mins) cpm, 20 (iNOS [1]; 10% solvent) [cpm]	% change in ratio (iNOS [1]; 10% solvent) [%]
CC(C)=O [acetone]	8	33	–	–	6.54	12884	8509	5169	1971	4.78	12431	8409	6708	2601	3.19	10201	6255	6464	3193	55
